Data from patent publication US6313375A, “Maize aquaporins and uses thereof” (Pioneer Hi-Bred International, Inc., priority 1999, dated 2001).

Columns and labels:
maize aquaporins = experiment: Inhibition of water transport through maize aquaporins in the Xenopus oocyte swelling assay; format: cell-based
Protocol: (§1) The biological activity of aquaporins is usually determined with Xenopus oocyte swelling assays (Maurel et al, 1993). MIP cRNA is injected into oocytes and after a 3-day incubation the oocytes are shifted to a hypotonic medium. If water channel proteins are present in the plasma membrane, the oocytes swell and burst much faster than the control oocytes. In these conditions oocytes injected with the plasma membrane AtRD28 aquaporin (Daniels et al., 1994) or maize aquaporin cRNAs rapidly increase their volume, indicating the presence of a facilitated water-transport pathway. The osmotic water permeability coefficient (Pf) of the oocyte membrane increases 8-fold over the control. Mercurial compounds were characteristic inhibitors of many water-channel proteins. Water transport through maize aquaporins are inhibited 50% by 1 mM mercuric chloride and this inhibition is reversed by the reducing agent -mercaptoethanol.

Xenopus oocyte = Xenopus oocyte swelling assay (oocytes injected with aquaporin cRNA, shifted to hypotonic medium); format: cell-based; settings: 3-day incubation, versus control oocytes
Protocol: as §1

For `OCCS` [-mercaptoethanol], the “reversal of the mercuric chloride inhibition of water transport through maize aquaporins” value (maize aquaporins; reducing agent added after inhibition by 1 mM mercuric chloride) was “reversed”.

In the case of `[Cl][Hg][Cl]` [mercuric chloride], the “inhibition of water transport through maize aquaporins” value (maize aquaporins; 1 mM mercuric chloride) is reported as 50%.

B1: AtRD28 aquaporin: plasma membrane AtRD28 aquaporin (Daniels et al., 1994), injected into oocytes as cRNA (protein, UniProt P30302 1-285, looked up)
Aquaporin PIP2-3: MAKDVEGPDGFQTRDYEDPPPTPFFDAEELTKWSLYRAVIAEFVATLLFLYVTVLTVIGYKIQSDTKAGGVDCGGVGILGIAWAFGGMIFILVYCTAGISGGHINPAVTFGLFLARKVSLIRAVLYMVAQCLGAICGVGFVKAFQSSHYVNYGGGANFLADGYNTGTGLAAEIIGTFVLVYTVFSATDPKRNARDSHVPVLAPLPIGFAVFMVHLATIPITGTGINPARSFGAAVIFNKSKPWDDHWIFWVGPFIGATIAAFYHQFVLRASGSKSLGSFRSAANV
In the case of B1, the “increase of the osmotic water permeability coefficient (Pf) of the oocyte membrane over the control” value (Xenopus oocyte) is reported as 8 fold.
